From patent US20070036793A1, “Methods for use of an lkb1/strad7mo25 complex” (priority 2003, published 2007) come the findings set out here.

Test [1] has as its system AMPK-related kinases (NUAK2, QIK, QSK, SIK, MARK1, MARK2/3, MARK4). The test is described as follows: Activity of endogenous AMPK-related kinases immunoprecipitated from HeLa cells after phenformin. Format: cell-based, human. Conditions: HeLa cells (control, wild type or kinase inactive LKB1), 10 mM phenformin, 1 h. As to the method:
FIG. 29. Activity of AMPK-related kinases In HeLa cells. […] AMPKα1 and AMPK-related kinases were immunoprecipitated from the cell lysates, and in vitro kinase activity towards the AMARA peptide was measured as described in Materials and Methods (Example 4). To confirm equal expression of the kinases in each sample, cell lysates (AMPKα1, MARK2/3 and MARK4) or immunoprecipitated proteins (NUAK2, QIK, QSK, SIK and MARK1) were subjected to SDS-PAGE and western immunoblot analysis. All AMPK-related kinases migrated with the expected molecular mass. In the case of AMPKα1, cell lysates were immunoblotted with a pThr172 antibody (P-AMPK), that recognises the phosphorylated T-loop. Results shown are average + SD of 2-4 assays and are representative of at least two independent experiments.
Cell culture, stimulation and cell lysis. […] Protein concentrations were determined by the Bradford method with bovine serum albumin as the standard (Bradford, 1976).
0.1-1 mg of Hela or MEF lysate protein was incubated at 4° C. for 1 h on a shaking platform with 5 μg of the corresponding antibody, which had been previously conjugated to 5 μl of protein G-Sepharose. The immunoprecipitates were washed twice with 1 ml of Lysis Buffer containing 0.5 M NaCl, and twice with 1 ml of Buffer A. Phosphotransferase activity towards the AMARA peptide was then measured in a total assay volume of 50 μl as described above.

The test system of test [2] is AMPK. The test is described as follows: AMPK activation by drugs in other cell types. The test is classed as cell-based.
Test [3] has as its system AMPK-related kinases (NUAK2, QIK, QSK, SIK, MARK1, MARK2/3, MARK4). Put plainly: Activity of endogenous AMPK-related kinases immunoprecipitated from MEFs after drug stimulation. Format: cell-based, mouse. Conditions: 1 h. As to the method: FIG. 27 Activity of AMPK-related kinases in LKB1+/+ and LKB1^−/− MEFs. LKB1^+/+ or LKB1^−/− MEFs were either left untreated (black bars) or stimulated with 10 mM phenformin (Phen, white bars) for 1 h. AMPKα1 and AMPK-related kinases were immunoprecipitated from the cell lysates, and in vitro kinase activity towards the AMARA peptide was measured as described in Materials and Methods (Example 4). To confirm equal expression of the kinases in each sample, cell lysates (AMPKα1, NUAK2, MARK2/3 and MARK4) or immunoprecipitated proteins (QIK, QSK, SIK and MARK1) were subjected to SDS-PAGE and western blot analysis. All AMPK-related kinases migrated with the expected molecular mass. In the case of AMPKα1, cell lysates were immunoblotted with a phospho Thr172 antibody (P-AMPK), that recognises the phosphorylated T-loop. […]
FIG. 28. […] AMPKα1/a2 and LKB1 were immunoprecipitated from the cell lysates, and in vitro kinase activity towards the AMARA and LKBtide peptides respectively, were measured as described in Materials and Methods (Example 4). […] AMPKα1 and the indicated AMPK-related kinases were immunoprecipitated from the cell lysates, and in vitro kinase activity towards the AMARA peptide measured as described in Materials and Methods. […]
Cell culture, stimulation and cell lysis. […] Protein concentrations were determined by the Bradford method with bovine serum albumin as the standard (Bradford, 1976). […]

For test [4], the target named is T1, AMPK (Homo sapiens, UniProt Q13131).
T1 construct: Endogenous AMPK was immunoprecipitated from the cell extracts and assayed; endogenous in cells; host or cells: HeLa cells (control, or stably expressing wild type or kinase-dead LKB1)
T1 sequence (Q13131 whole entry): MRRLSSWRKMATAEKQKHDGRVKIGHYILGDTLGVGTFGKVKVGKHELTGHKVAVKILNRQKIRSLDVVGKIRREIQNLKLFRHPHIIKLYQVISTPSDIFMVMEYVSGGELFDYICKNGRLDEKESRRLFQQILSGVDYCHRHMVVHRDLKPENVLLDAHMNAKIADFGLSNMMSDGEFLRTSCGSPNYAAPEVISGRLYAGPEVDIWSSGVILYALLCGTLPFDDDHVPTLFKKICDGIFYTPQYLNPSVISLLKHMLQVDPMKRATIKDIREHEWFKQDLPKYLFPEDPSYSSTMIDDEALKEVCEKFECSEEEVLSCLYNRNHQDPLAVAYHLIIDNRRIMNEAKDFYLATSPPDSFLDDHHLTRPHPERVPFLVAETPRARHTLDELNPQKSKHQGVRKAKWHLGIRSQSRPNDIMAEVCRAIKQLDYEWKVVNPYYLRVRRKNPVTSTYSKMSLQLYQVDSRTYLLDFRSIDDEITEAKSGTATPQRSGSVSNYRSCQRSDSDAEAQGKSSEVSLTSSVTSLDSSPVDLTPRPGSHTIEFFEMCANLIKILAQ
T1 sequence (Q9Y478 2-270 partner limits assumed): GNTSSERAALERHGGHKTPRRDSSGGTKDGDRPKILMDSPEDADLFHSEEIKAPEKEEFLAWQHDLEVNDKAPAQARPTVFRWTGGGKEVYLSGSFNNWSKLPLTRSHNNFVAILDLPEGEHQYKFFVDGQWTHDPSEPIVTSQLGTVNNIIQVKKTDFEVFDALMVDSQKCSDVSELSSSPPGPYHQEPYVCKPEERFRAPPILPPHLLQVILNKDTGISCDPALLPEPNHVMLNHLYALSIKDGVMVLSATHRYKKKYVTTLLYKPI
T1 sequence (P54619 whole entry partner): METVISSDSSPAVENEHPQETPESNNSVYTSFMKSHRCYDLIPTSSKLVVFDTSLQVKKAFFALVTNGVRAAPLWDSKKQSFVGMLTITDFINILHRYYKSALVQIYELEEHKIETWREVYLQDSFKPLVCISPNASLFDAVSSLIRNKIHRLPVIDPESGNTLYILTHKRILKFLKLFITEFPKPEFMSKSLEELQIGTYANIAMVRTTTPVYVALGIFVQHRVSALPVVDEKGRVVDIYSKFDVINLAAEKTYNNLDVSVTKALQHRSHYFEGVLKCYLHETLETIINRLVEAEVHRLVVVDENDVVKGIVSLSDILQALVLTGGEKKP
Put plainly: Activation and Thr-172 phosphorylation of endogenous AMPK in HeLa cells with or without stably expressed LKB1. The test is classed as cell-based. As to conditions: earlier unpublished results.

As to `[H]/N=C(/N)N/C(=N/[H])NCCc1ccccc1` [phenformin], the “activity of AMPK-related kinases” value is “none of the AMPK-related kinases were significantly activated” in test [1] and “not significantly stimulated” in test [3] (MEFs, 10 mM phenformin). Further, in test [2], the “activation of AMPK compared with metformin” value is “more rapidly and more potently than metformin”.
As for `NC(=O)c1ncn([C@@H]2O[C@H](CO)[C@@H](O)[C@H]2O)c1N` [AICA riboside, 5-aminoimidazole-4-carboxamide (AICA) riboside], the “activation of AMPK” value in test [4] is on record as “not activated”. In addition, the “activity of AMPK-related kinases” value in test [3] (LKB1+/+ MEFs, 2 mM AICA riboside) was “failed to markedly activate”.
